Test results from US20240188568A1, “ENVIRONMENTALLY FRIENDLY COMPOSITIONS AND METHODS OF THEIR USE FOR PROMOTING THE GROWTH OF TURFGRASS OVER WEEDS” (Edaphix, LLC, priority 2021, published 2024).

Columns and labels:
French marigold = settings: Jong et al. (1996); cited from earlier work
seed geranium = settings: in combination with nitrogen, phosphorus, and potassium; Lee and others (1996); cited from earlier work
chlorophyllitic plants = settings: as little as; cited from earlier work
[1] = 2005 carcinogen assessment guidelines; cited from earlier work
turf weeds = assay: Turfgrass test plots, Bozeman, MT: weed cover; assay type: in vivo
Text: (§1) Initially, a series of small turfgrass test plots was studied to gather preliminary information that helped guide the establishment of this larger, long-term study involving multiple rates and formulations. The test plots of this experiment were established in a weedy turfgrass location within the Bridger Creek Subdivision Community Association, Phase 1, Section 31, Township 1 South, Range 6 East, P.M.M., City of Bozeman, Gallatin County, Montana. The experimental site was established in a location with approximately 20 inches of annual precipitation, with annual maximum precipitation amounts observed in May and June. Winter conditions with frozen ground prevail during approximately 5 months of the year (November-March). Soils have high organic matter content in the upper six inches and are underlain by floodplain gravels and a water table 3-15 feet below ground surface. The primary turf weeds at this location in their order of relative prevalence are clover, dandelion, creeping Charlie, oxeye daisy, black medic and Canadian thistle. […]
(§2) The plots were typically 50 square feet (FIG. 1). Vegetation cover measurements were made using a frame placed on the turf and an estimate was calculated for the proportion of perennial grasses and weeds in each frame (FIG. 2). […] Since installation of the first plots, they have been monitored 5 times over a period of 21 months for vegetation cover. […]

perennial grasses = assay: Turfgrass test plots, Bozeman, MT: healthy perennial grass cover and turf stress; assay type: in vivo; settings: healthy perennial grass cover averaged over each treatment category, 21 months (Table 3)
Text: as §1, with “surface.” for “surface. The primary turf weeds at this location in their order of relative prevalence are clover, dandelion, creeping Charlie, oxeye daisy, black medic and Canadian thistle.”
as §2
The boron-only plots caused turf stress and yellowing. Immediately following application in monitoring, healthy and unhealthy/stressed turf was measured based on tissue color. […]

## [B] [boron]
French marigold
  concentration inducing micro-nutrient toxicity: 500 ng/mL
Seed geranium
  concentration of nutrient solution inducing micronutrient toxicity symptoms: 500 ng/mL

## [Zn] [Zn, zinc]
Seed geranium
  concentration of nutrient solution inducing micronutrient toxicity symptoms: 500 ng/mL

## [Mo] [Mo, molybdenum]
Seed geranium
  concentration of nutrient solution inducing micronutrient toxicity symptoms: 250 ng/mL

## O=C(O)CNCP(=O)(O)O [glyphosate]
Chlorophyllitic plants
  application rate effective at causing photosynthetic disruption: 0.75 pounds active ingredient per acre

## [Cu] [Cu, copper]
Seed geranium
  concentration of nutrient solution inducing micronutrient toxicity symptoms: 500 ng/mL

## OB(O)O [boric acid]
[1]
  U.S. EPA carcinogenicity classification: not likely to be carcinogenic to humans

## borate salts
[1]
  U.S. EPA carcinogenicity classification: not likely to be carcinogenic to humans

## O=C(O)COc1ccc(Cl)cc1Cl [2-4 D, 2,4-Dichlorophenoxyacetic acid]
Turf weeds; typical value over the first 2 years of monitoring (FIG. 3), control about 50%
  weed cover, typical: ~20%
Turf weeds; weed cover averaged over each treatment category, 21 months (Table 3)
  Average Percent Ground Cover For 21-Month Monitoring Period, Weeds: 13%
Perennial grasses
  Average Percent Ground Cover For 21-Month Monitoring Period, Turf Grass: 80%
